According to US9902702B2, “Spirocycloheptanes as inhibitors of rock” (BRISTOL-MYERS SQUIBB COMPANY, priority 2014, dated 2018):

molecular target: ROCK2 (Homo sapiens, UniProt O75116); experiment: ROCK assay: phosphorylation of FITC peptide substrate, LABCHIP 3000 mobility shift; type: biochemical; conditions: 5 μM ATP, 1.5 μM peptide substrate; read-out: ROCK2 Activity (ROCK IC50 range)
Outline: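 IC50 values come from curve-fitting percent kinase inhibition across a compound dilution series. The reaction is started with Rho kinase variant in HEPES pH 7.5 buffer with MgCl2, Brij-35 and DTT, with 5 μM ATP, 1.5 μM FITC-labelled peptide and under 2% DMSO. After EDTA quench, product and substrate are separated by microfluidic mobility shift.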

ROCK2, sequence (O75116 whole entry, species assumed): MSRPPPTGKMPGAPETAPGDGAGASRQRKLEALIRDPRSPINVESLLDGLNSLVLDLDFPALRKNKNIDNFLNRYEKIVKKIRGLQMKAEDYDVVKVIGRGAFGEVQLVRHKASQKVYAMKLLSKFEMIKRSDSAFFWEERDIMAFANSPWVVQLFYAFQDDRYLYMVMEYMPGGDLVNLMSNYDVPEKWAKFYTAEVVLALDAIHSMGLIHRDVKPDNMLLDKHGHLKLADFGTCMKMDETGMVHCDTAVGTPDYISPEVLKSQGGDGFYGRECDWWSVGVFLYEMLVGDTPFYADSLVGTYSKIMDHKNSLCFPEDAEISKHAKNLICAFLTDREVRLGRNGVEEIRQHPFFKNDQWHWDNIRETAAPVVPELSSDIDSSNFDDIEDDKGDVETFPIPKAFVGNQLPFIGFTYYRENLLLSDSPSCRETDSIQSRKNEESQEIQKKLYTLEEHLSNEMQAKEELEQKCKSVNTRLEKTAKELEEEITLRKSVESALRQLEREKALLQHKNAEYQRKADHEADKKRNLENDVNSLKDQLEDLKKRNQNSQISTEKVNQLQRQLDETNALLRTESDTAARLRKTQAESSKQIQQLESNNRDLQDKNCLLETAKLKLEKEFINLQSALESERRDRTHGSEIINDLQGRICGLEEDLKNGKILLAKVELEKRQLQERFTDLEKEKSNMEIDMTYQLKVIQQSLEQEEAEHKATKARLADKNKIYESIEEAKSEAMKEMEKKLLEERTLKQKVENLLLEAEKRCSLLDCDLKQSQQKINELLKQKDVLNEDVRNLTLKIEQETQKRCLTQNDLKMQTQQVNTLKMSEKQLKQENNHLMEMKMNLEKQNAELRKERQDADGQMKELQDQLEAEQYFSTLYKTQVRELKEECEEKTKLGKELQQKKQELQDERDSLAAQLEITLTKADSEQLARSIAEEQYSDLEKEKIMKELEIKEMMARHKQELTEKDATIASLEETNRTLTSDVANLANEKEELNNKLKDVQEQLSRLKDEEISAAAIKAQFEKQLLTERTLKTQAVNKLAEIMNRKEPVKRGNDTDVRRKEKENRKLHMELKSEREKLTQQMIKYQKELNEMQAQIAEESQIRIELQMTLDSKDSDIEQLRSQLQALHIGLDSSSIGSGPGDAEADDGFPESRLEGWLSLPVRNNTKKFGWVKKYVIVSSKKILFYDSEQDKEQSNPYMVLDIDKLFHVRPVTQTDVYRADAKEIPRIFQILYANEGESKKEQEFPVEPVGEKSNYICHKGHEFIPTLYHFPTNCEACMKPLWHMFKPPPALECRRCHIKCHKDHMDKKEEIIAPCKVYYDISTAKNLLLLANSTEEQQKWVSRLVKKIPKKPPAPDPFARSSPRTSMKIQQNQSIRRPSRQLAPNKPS

First: O=C(NC1CC2(C1)CC(c1n[nH]c(=O)c3ccccc13)C2)c1cnn2cc(-c3cnn(CC(O)C(F)(F)F)c3)ccc12 [Example 171, N-((αR)-6-(4-oxo-3,4-dihydrophthalazin-1-yl)spiro[3.3]heptan-2-yl)-6-(1-((S)-3,3,3-trifluoro-2-hydroxypropyl)-1H-pyrazol-4-yl)pyrazolo[1,5-α]pyridine-3-carboxamide]
Second: O=C(NC1CC2(C1)CC(c1n[nH]c(=O)c3ccccc13)C2)c1cnn2cc(-c3cn[nH]c3)ccc12 (stereo not drawn) [Example 174, N-((αR)-6-(4-oxo-3,4-dihydrophthalazin-1-yl)spiro[3.3]heptan-2-yl)-6-(1H-pyrazol-4-yl)pyrazolo[1,5-α]pyridine-3-carboxamide]
The IC50 of the first is higher: 2.01 to 5 nM for the first, 0.2 to 2 nM for the second. The second is the more potent here.

First: O=C(NC1CC2(C1)CC(c1n[nH]c(=O)c3ccccc13)C2)c1cnn2cc(-c3c[nH]nc3C(F)(F)F)ccc12 (stereo not drawn) [Example 172, N-((αR)-6-(4-oxo-3,4-dihydrophthalazin-1-yl)spiro[3.3]heptan-2-yl)-6-(3-(trifluoromethyl)-1H-pyrazol-4-yl)pyrazolo[1,5-α]pyridine-3-carboxamide]
Second: O=C(NC1CC2(C1)CC(c1n[nH]c(=O)c3ccccc13)C2)c1cnn2cc(-c3nccs3)ccc12 (stereo not drawn) [Example 173, N-((αR)-6-(4-oxo-3,4-dihydrophthalazin-1-yl)spiro[3.3]heptan-2-yl)-6-(thiazol-2-yl)pyrazolo[1,5-α]pyridine-3-carboxamide]
The IC50 of the first is higher: 2.01 to 5 nM for the first, 0.2 to 2 nM for the second.

First: Cc1nnn(C)c1-c1ccc2c(C(=O)NC3CC4(C3)CC(c3n[nH]c(=O)c5ccccc35)C4)cnn2c1 (stereo not drawn) [Example 175, 6-(1,4-dimethyl-1H-1,2,3-triazol-5-yl)-N-((αR)-6-(4-oxo-3,4-dihydrophthalazin-1-yl)spiro[3.3]heptan-2-yl)pyrazolo[1,5-α]pyridine-3-carboxamide]
Second: [H][C@]1(c2n[nH]c(=O)c3ccccc32)C[C@]2(C[C@@H](NC(=O)c3cnn4cc(OCCO)ccc34)C2)C1 (stereo partly shown) [Example 181]
The IC50 of the first is higher: 15.1 to 100 nM for the first, 0.2 to 2 nM for the second.

First: O=C(NC1CC2(C1)CC(c1n[nH]c(=O)c3ccccc13)C2)c1cnn2cc(-n3ccnc3)ccc12 (stereo not drawn) [Example 176, 6-(1H-imidazol-1-yl)-N-((αR)-6-(4-oxo-3,4-dihydrophthalazin-1-yl)spiro[3.3]heptan-2-yl)pyrazolo[1,5-α]pyridine-3-carboxamide]
Second: O=C(N[C@H]1CC2(C1)C[C@H](c1n[nH]c(=O)c3ccccc31)C2)c1cnn2cc(-n3cccn3)ccc12 (stereo partly drawn) [Example 177, N-((αR)-6-(4-oxo-3,4-dihydrophthalazin-1-yl)spiro[3.3]heptan-2-yl)-6-(1H-pyrazol-1-yl)pyrazolo[1,5-α]pyridine-3-carboxamide]
The IC50 of the first is higher: 5.1 to 15 nM for the first, 0.2 to 2 nM for the second.

First: O=C(NC1CC2(C1)CC(c1n[nH]c(=O)c3ccccc13)C2)c1cnn2cc(-n3cncn3)ccc12 (stereo not drawn) [Example 178, N-((αR)-6-(4-oxo-3,4-dihydrophthalazin-1-yl)spiro[3.3]heptan-2-yl)-6-(1H-1,2,4-triazol-1-yl)pyrazolo[1,5-α]pyridine-3-carboxamide]
Second: O=C(NC1CC2(C1)CC(c1n[nH]c(=O)c3ccccc13)C2)c1cnn2cc(-n3ccc(=O)cc3)ccc12 (stereo not drawn) [Example 180, N-((αR)-6-(4-oxo-3,4-dihydrophthalazin-1-yl)spiro[3.3]heptan-2-yl)-6-(4-oxopyridin-1(4H)-yl)pyrazolo[1,5-α]pyridine-3-carboxamide]
The IC50 of the first is lower: 2.01 to 5 nM for the first, 15.1 to 100 nM for the second.

First: COCCOc1ccc2c(C(=O)NC3CC4(C3)CC(c3n[nH]c(=O)c5ccccc35)C4)cnn2c1 (stereo not drawn) [Example 179, 6-(2-methoxyethoxy)-N-((αR)-6-(4-oxo-3,4-dihydrophthalazin-1-yl)spiro[3.3]heptan-2-yl)pyrazolo[1,5-α]pyridine-3-carboxamide]
Second: CN(C)CCOc1ccc2c(C(=O)NC3CC4(C3)CC(c3n[nH]c(=O)c5ccccc35)C4)cnn2c1 [Example 183, 6-(2-(dimethylamino)ethoxy)-N-((aR)-6-(4-oxo-3,4-dihydrophthalazin-1-yl)spiro[3.3]heptan-2-yl)pyrazolo[1,5-a]pyridine-3-carboxamide]
The IC50 of the first is lower: 0.2 to 2 nM for the first, 2.01 to 5 nM for the second. The first is the more potent here.

Compared with `O=C(N[C@H]1CC2(C1)C[C@H](c1n[nH]c(=O)c3ccccc31)C2)c1cnn2cc(OCCN3CC(F)C3)ccc12` (stereo partly drawn) [Example 182, 6-(2-(3-fluoroazetidin-1-yl)ethoxy)-N-((aR)-6-(4-oxo-3,4-dihydrophthalazin-1-yl)spiro[3.3]heptan-2-yl)pyrazolo[1,5-a]pyridine-3-carboxamide], `O=C(NC1CC2(C1)CC(c1n[nH]c(=O)c3ccccc13)C2)c1cnn2cc(OCCN3CCC(F)C3)ccc12` [Example 189, 6-(2-((R)-3-fluoropyrrolidin-1-yl)ethoxy)-N-((aR)-6-(4-oxo-3,4-dihydrophthalazin-1-yl)spiro[3.3]heptan-2-yl)pyrazolo[1,5-a]pyridine-3-carboxamide] is lower in IC50: 2.01 to 5 nM for the first, 0.2 to 2 nM for the second. The second is the more potent here.

`CC1(C)CN(CCOc2ccc3c(C(=O)NC4CC5(C4)CC(c4n[nH]c(=O)c6ccccc46)C5)cnn3c2)CCC1O` [Example 184, 6-(2-(4-hydroxy-3,3-dimethylpiperidin-1-yl)ethoxy)-N-((aR)-6-(4-oxo-3,4-dihydrophthalazin-1-yl)spiro[3.3]heptan-2-yl)pyrazolo[1,5-a]pyridine-3-carboxamide] and `CC1(C)CN(CCOc2ccc3c(C(=O)NC4CC5(C4)CC(c4n[nH]c(=O)c6ccccc46)C5)cnn3c2)CCO1` [Example 187, 6-(2-(2,2-dimethylmorpholino)ethoxy)-N-((aR)-6-(4-oxo-3,4-dihydrophthalazin-1-yl)spiro[3.3]heptan-2-yl)pyrazolo[1,5-a]pyridine-3-carboxamide] fall in the same range of IC50: 0.2 to 2 nM for the first, 0.2 to 2 nM for the second.

First: O=C(NC1CC2(C1)CC(c1n[nH]c(=O)c3ccccc13)C2)c1cnn2cc(OCCN3CCC(F)(F)C3)ccc12 [Example 185, 6-(2-(3,3-difluoropyrrolidin-1-yl)ethoxy)-N-((aR)-6-(4-oxo-3,4-dihydrophthalazin-1-yl)spiro[3.3]heptan-2-yl)pyrazolo[1,5-a]pyridine-3-carboxamide]
Second: O=C(NC1CC2(C1)CC(c1n[nH]c(=O)c3ccccc13)C2)c1cnn2cc(OCCN3CCC3)ccc12 [Example 186, 6-(2-(azetidin-1-yl)ethoxy)-N-((aR)-6-(4-oxo-3,4-dihydrophthalazin-1-yl)spiro[3.3]heptan-2-yl)pyrazolo[1,5-a]pyridine-3-carboxamide]
The IC50 of the first is lower: 0.2 to 2 nM for the first, 2.01 to 5 nM for the second. The first is the more potent here.

`CN1CCN(CCOc2ccc3c(C(=O)NC4CC5(C4)CC(c4n[nH]c(=O)c6ccccc46)C5)cnn3c2)CC1` [Example 188, 6-(2-(4-methylpiperazin-1-yl)ethoxy)-N-((aR)-6-(4-oxo-3,4-dihydrophthalazin-1-yl)spiro[3.3]heptan-2-yl)pyrazolo[1,5-a]pyridine-3-carboxamide] and `O=C(NC1CC2(C1)CC(c1n[nH]c(=O)c3ccccc13)C2)c1cnn2cc(OCCN3CCC(F)C3)ccc12` [Example 190, 6-(2-((S)-3-fluoropyrrolidin-1-yl)ethoxy)-N-((aR)-6-(4-oxo-3,4-dihydrophthalazin-1-yl)spiro[3.3]heptan-2-yl)pyrazolo[1,5-a]pyridine-3-carboxamide] fall in the same range of IC50: 0.2 to 2 nM for the first, 0.2 to 2 nM for the second.

`O=C(N[C@H]1CC2(C1)C[C@H](c1n[nH]c(=O)c3ccccc31)C2)c1cnn2cc(CCCN3CCOCC3)ccc12` (stereo partly drawn) [Example 191, 6-(3-morpholinopropyl)-N-((aR)-6-(4-oxo-3,4-dihydrophthalazin-1-yl)spiro[3.3]heptan-2-yl)pyrazolo[1,5-a]pyridine-3-carboxamide] and `O=C(NC1CC2(C1)CC(c1n[nH]c(=O)c3ccccc13)C2)c1cnn2cc(CCCN3CCCC3)ccc12` [Example 192, N-((aR)-6-(4-oxo-3,4-dihydrophthalazin-1-yl)spiro[3.3]heptan-2-yl)-6-(3-(pyrrolidin-1-yl)propyl)pyrazolo[1,5-a]pyridine-3-carboxamide] fall in the same range of IC50: 2.01 to 5 nM for the first, 2.01 to 5 nM for the second.

`CN(C)CCCc1ccc2c(C(=O)NC3CC4(C3)CC(c3n[nH]c(=O)c5ccccc35)C4)cnn2c1` [Example 193, 6-(3-(dimethylamino)propyl)-N-((aR)-6-(4-oxo-3,4-dihydrophthalazin-1-yl)spiro[3.3]heptan-2-yl)pyrazolo[1,5-a]pyridine-3-carboxamide] and `O=C(NC1CC2(C1)CC(c1n[nH]c(=O)c3ccccc13)C2)c1cnn2cc(CCCO)ccc12` [Example 195, 6-(3-hydroxypropyl)-N-((aR)-6-(4-oxo-3,4-dihydrophthalazin-1-yl)spiro[3.3]heptan-2-yl)pyrazolo[1,5-a]pyridine-3-carboxamide] fall in the same range of IC50: 5.1 to 15 nM for the first, 5.1 to 15 nM for the second.

First: O=C(NC1CC2(C1)CC(c1n[nH]c(=O)c3ccccc13)C2)c1cnn2cc(CCCNC3CC3)ccc12 (stereo not shown) [Example 194]
Second: CC(C)(O)CCc1ccc2c(C(=O)N[C@H]3CC4(C3)C[C@H](c3n[nH]c(=O)c5ccccc53)C4)cnn2c1 (stereo partly drawn) [Example 198, 6-(3-hydroxy-3-methylbutyl)-N-((aR)-6-(4-oxo-3,4-dihydrophthalazin-1-yl)spiro[3.3]heptan-2-yl)pyrazolo[1,5-a]pyridine-3-carboxamide]
The IC50 of the first is higher: 5.1 to 15 nM for the first, 0.2 to 2 nM for the second. The second is the more potent here.

First: O=C(NC1CC2(C1)CC(c1n[nH]c(=O)c3ccccc13)C2)c1cnn2cc(CCCN3CCC(F)(F)CC3)ccc12 [Example 196, 6-(3-(4,4-difluoropiperidin-1-yl)propyl)-N-((aR)-6-(4-oxo-3,4-dihydrophthalazin-1-yl)spiro[3.3]heptan-2-yl)pyrazolo[1,5-a]pyridine-3-carboxamide]
Second: O=C(NC1CC2(C1)CC(c1n[nH]c(=O)c3ccccc13)C2)c1cnn2cc(CCCN3CCC(F)(F)C3)ccc12 [Example 197, 6-(3-(3,3-difluoropyrrolidin-1-yl)propyl)-N-((aR)-6-(4-oxo-3,4-dihydrophthalazin-1-yl)spiro[3.3]heptan-2-yl)pyrazolo[1,5-a]pyridine-3-carboxamide]
The IC50 of the first is higher: 2.01 to 5 nM for the first, 0.2 to 2 nM for the second.
